Measured values published in article PMC3598812, “Evaluation of Anti-Hyperalgesic and Analgesic Effects of Two Benzodiazepines in Human Experimental Pain: A Randomized Placebo-Controlled Study” (PLoS ONE, 2013).
Values joined by “and” are separate entries in the source; they are usually repeats but may differ in a detail not shown here. Identical values can stand only once. “Also recorded” adds a separate entry of the source.

Columns and labels:
Format in all cases: in vivo, human
healthy male volunteers [1] = assay: Area of dynamic mechanical hyperalgesia after intradermal capsaicin (cotton wool stroking); settings: single oral dose (clobazam 20 mg, clonazepam 1 mg, tolterodine 1 mg), mean (SD)
Protocol: The area of dynamic mechanical hyperalgesia was determined by gently stroking a hand-held cotton wool tip on a 1 cm strip of the skin, at a rate of approximately 1 cm/s. Subjects were asked to report when the sensation changed from a non-painful to a painful sensation. The borders of dynamic hyperalgesia were delineated similarly to the determination of static hyperalgesia.

healthy male volunteers [2] = assay: Pain rating (VAS) after graded von Frey hair stimulation in the capsaicin hyperalgesic area; settings: VAS 0-10, single oral dose (clobazam 20 mg, clonazepam 1 mg, tolterodine 1 mg), mean (SD)
Protocol: Additionally, mechanical pain sensitivity was assessed using a set of seven weighted pinprick stimuli to obtain a stimulus-response function. The test was applied 1 cm inside the outer border of the pinprick hyperalgesic area, using a set of 7 graded von Frey hair mechanical stimulators with fixed stimulus intensities (custom-made at Aalborg University, Denmark). The flat contact area of the stimulators has a 0.2 mm diameter, and the 7 stimulators exert forces of 8, 16, 32, 64, 128, 256 and 512 mN. The order of stimulation was defined randomly by computer. The stimulators were applied at a rate of 2 s on/2 s off. Subjects were asked to give a pain rating for each stimulus on a 10 cm VAS. Two assessments for each stimulation were made and the mean of these 2 measurements was used for the data analysis.

healthy male volunteers [3] = assay: Pressure pain detection and tolerance thresholds (pressure algometer, 2nd toe); settings: mean (SD)
Protocol: Pain detection and tolerance thresholds were measured with an electronic pressure algometer (Somedic, Hörby, Sweden) applied at the center of the pulp of the 2nd toe. […] The pressure was increased from 0 at a rate of 30 kPa/s to a maximum pressure of 1200 kPa. Pain detection threshold was defined as the point at which the pressure sensation turned to pain. Pain tolerance threshold was defined as the point at which the subject felt the pain as intolerable. If the threshold was not reached at 1200 kPa, this value was considered as threshold. Three assessments were made and the mean of these 3 measurements were used for the data analysis.

healthy male volunteers [4] = assay: Cutaneous single electrical stimulation pain threshold; settings: mean (SD)
Protocol: (§1) Electrical stimulation was performed through electrodes placed distal to the lateral malleolus. A 25 ms, train-of-five, 1 ms, square-wave impulse (perceived as one stimulus), was delivered by a computer-controlled constant current stimulator (Digitimer DS7A, Neurospec, Letchworth Garden City, UK). The current intensity was increased from 1 mA in steps of 0.5 mA until a pain sensation was evoked.
Three assessments were made and the mean of these 3 measurements was used for the data analysis.

healthy male volunteers [5] = assay: Cutaneous repeated (20 stimuli) electrical stimulation, VAS; set-up: AUC of VAS during 20 cutaneous electrical stimuli: unit not given beside the values; settings: mean (SD); for Maximal VAS during 20 cutaneous electrical stimuli: VAS 0-10
Protocol: The stimulus burst used for single stimulus was repeated for a train of 20 pulses at 2 Hz, at an intensity corresponding to the temporal summation threshold. During this 10 s stimulation, pain intensity was continuously rated by the subject with an electronic VAS, and the area under the curve (AUC) was computed. Additionally, the maximal VAS during stimulation was recorded.

healthy male volunteers [6] = assay: Intramuscular single electrical stimulation pain threshold (tibialis anterior); settings: for Pain threshold after single intramuscular electrical stimulation: mean (SD)
Protocol: as §1
A needle was placed in the tibialis anterior muscle, 14 cm distal from the caudal end of the patella and 20 mm in depth. The same single and repeated stimulation patterns and the same procedure described for cutaneous stimulation were used.

healthy male volunteers [7] = assay: Cuff algometry (tourniquet cuff on the leg, VAS-time AUC); set-up: AUC of VAS during cuff algometry: unit not given beside the values; settings: for AUC of VAS during cuff algometry: mean (SD)
Excerpt: A tourniquet cuff was applied to the middle of the leg, at the level of the heads of the gastrocnemius and soleus muscle. The cuff was applied at the side contralateral to the side of electrical stimulation in order not to interfere with the positioning of the intramuscular electrodes. During stimulation, the volunteer rated the pain intensity on an electronic VAS scale. The cuff was inflated with compressed air until VAS 6 was reached. The maximum allowed inflating pressure was 200 kPa. The pressure was maintained for 10 min or until the subjects rated the pain as intolerable. The area under the curve VAS-time was computed. For those subjects who felt intolerable pain before 10 min, the time when the cuff was deflated was recorded and VAS 10 was extrapolated until 10 min. Additionally, the maximal VAS during inflation was recorded.

[8] = baseline before medication, per drug session
[9] = single oral dose (clobazam 20 mg, clonazepam 1 mg, tolterodine 1 mg), 120 min after medication
[10] = single oral dose (clobazam 20 mg, clonazepam 1 mg, tolterodine 1 mg), after flumazenil 0.2 mg iv
[11] = single oral dose (clobazam 20 mg, clonazepam 1 mg, tolterodine 1 mg), 30 min after medication
[12] = single oral dose (clobazam 20 mg, clonazepam 1 mg, tolterodine 1 mg), 60 min after medication
[13] = single oral dose (clobazam 20 mg, clonazepam 1 mg, tolterodine 1 mg), 90 min after medication
[14] = subgroup analysis (n = 8), pairwise multiple comparisons

SMILES: O=C1CN=C(c2ccccc2Cl)c2cc([N+](=O)[O-])ccc2N1 [Clonazepam]
- Area of dynamic hyperalgesia (healthy male volunteers [1]; 30 min after medication): 22.4 (11.2) cm^2
- Area of dynamic hyperalgesia (healthy male volunteers [1]; 60 min after medication): 19.0 (07.8) cm^2
- Area of dynamic hyperalgesia (healthy male volunteers [1]; 90 min after medication): 21.7 (12.6) cm^2
- Area of dynamic hyperalgesia (healthy male volunteers [1]; 120 min after medication): 16.8 (10.8) cm^2
- Area of dynamic hyperalgesia (healthy male volunteers [1]; after flumazenil 0.2 mg iv): 19.2 (13.1) cm^2
- VAS after von Frey hair 8 mN (healthy male volunteers [2]; 30 min after medication): 1.4 (1.5)
- VAS after von Frey hair 16 mN (healthy male volunteers [2]; 30 min after medication): 1.6 (1.2)
- VAS after von Frey hair 32 mN (healthy male volunteers [2]; 30 min after medication): 1.9 (1.5)
- VAS after von Frey hair 64 mN (healthy male volunteers [2]; 30 min after medication): 2.8 (1.8)
- VAS after von Frey hair 128 mN (healthy male volunteers [2]; 30 min after medication): 3.2 (4.2)
- VAS after von Frey hair 256 mN (healthy male volunteers [2]; 30 min after medication): 4.2 (2.2)
- VAS after von Frey hair 512 mN (healthy male volunteers [2]; 30 min after medication): 5.2 (2.1)
- VAS after von Frey hair 8 mN (healthy male volunteers [2]; 60 min after medication): 1.2 (0.9)
- VAS after von Frey hair 16 mN (healthy male volunteers [2]; 60 min after medication): 1.8 (1.9)
- VAS after von Frey hair 32 mN (healthy male volunteers [2]; 60 min after medication): 2.0 (2.0)
- VAS after von Frey hair 64 mN (healthy male volunteers [2]; 60 min after medication): 2.7 (2.0)
- VAS after von Frey hair 128 mN (healthy male volunteers [2]; 60 min after medication): 3.5 (2.0)
- VAS after von Frey hair 256 mN (healthy male volunteers [2]; 60 min after medication): 4.1 (1.8)
- VAS after von Frey hair 512 mN (healthy male volunteers [2]; 60 min after medication): 5.1 (2.0)
- VAS after von Frey hair 8 mN (healthy male volunteers [2]; 90 min after medication): 0.8 (0.8)
- VAS after von Frey hair 16 mN (healthy male volunteers [2]; 90 min after medication): 1.3 (1.0)
- VAS after von Frey hair 32 mN (healthy male volunteers [2]; 90 min after medication): 1.8 (1.4)
- VAS after von Frey hair 64 mN (healthy male volunteers [2]; 90 min after medication): 2.1 (1.6)
- VAS after von Frey hair 128 mN (healthy male volunteers [2]; 90 min after medication): 2.8 (1.7)
- VAS after von Frey hair 256 mN (healthy male volunteers [2]; 90 min after medication): 4.4 (2.0)
- VAS after von Frey hair 512 mN (healthy male volunteers [2]; 90 min after medication): 5.3 (2.1)
- VAS after von Frey hair 8 mN (healthy male volunteers [2]; 120 min after medication): 1.0 (0.8)
- VAS after von Frey hair 16 mN (healthy male volunteers [2]; 120 min after medication): 1.4 (1.2)
- VAS after von Frey hair 32 mN (healthy male volunteers [2]; 120 min after medication): 2.1 (1.7)
- VAS after von Frey hair 64 mN (healthy male volunteers [2]; 120 min after medication): 2.3 (1.5)
- VAS after von Frey hair 128 mN (healthy male volunteers [2]; 120 min after medication): 2.9 (1.9)
- VAS after von Frey hair 256 mN (healthy male volunteers [2]; 120 min after medication): 3.9 (2.2)
- VAS after von Frey hair 512 mN (healthy male volunteers [2]; 120 min after medication): 5.0 (1.9)
- VAS after von Frey hair 8 mN (healthy male volunteers [2]; after flumazenil 0.2 mg iv): 0.6 (0.6)
- VAS after von Frey hair 16 mN (healthy male volunteers [2]; after flumazenil 0.2 mg iv): 1.4 (1.2)
- VAS after von Frey hair 32 mN (healthy male volunteers [2]; after flumazenil 0.2 mg iv): 1.6 (1.4)
- VAS after von Frey hair 64 mN (healthy male volunteers [2]; after flumazenil 0.2 mg iv): 2.2 (1.7)
- VAS after von Frey hair 128 mN (healthy male volunteers [2]; after flumazenil 0.2 mg iv): 2.6 (1.9)
- VAS after von Frey hair 256 mN (healthy male volunteers [2]; after flumazenil 0.2 mg iv): 3.8 (1.7)
- VAS after von Frey hair 512 mN (healthy male volunteers [2]; after flumazenil 0.2 mg iv): 4.9 (1.7)
- Pressure pain detection threshold (healthy male volunteers [3]; [8]): 416 (80) kPa
- Pressure pain tolerance threshold (healthy male volunteers [3]; [8]): 685 (172) kPa and 749 (242) kPa
- Pressure pain detection threshold (healthy male volunteers [3]; [9]): 383 (100) kPa
- Pressure pain tolerance threshold (healthy male volunteers [3]; [9]): 636 (147) kPa and 712 (262) kPa
- Pressure pain detection threshold (healthy male volunteers [3]; [10]): 389 (112) kPa
- Pressure pain tolerance threshold (healthy male volunteers [3]; [10]): 390.8 (199) kPa and 734.7 (279) kPa
- Pain threshold after single cutaneous electrical stimulation (healthy male volunteers [4]; [8]): 9.7 (3.3) mA
- Pain threshold after single cutaneous electrical stimulation (healthy male volunteers [4]; [11]): 9.8 (3.5) mA
- Pain threshold after single cutaneous electrical stimulation (healthy male volunteers [4]; [12]): 10.3 (3.4) mA
- Pain threshold after single cutaneous electrical stimulation (healthy male volunteers [4]; [13]): 10.6 (3.6) mA
- Pain threshold after single cutaneous electrical stimulation (healthy male volunteers [4]; [9]): 11.0 (3.6) mA
- Pain threshold after single cutaneous electrical stimulation (healthy male volunteers [4]; [10]): 11.2 (3.9) mA
- Maximal VAS during 20 cutaneous electrical stimuli (healthy male volunteers [5]; [8]): 4.9 (1.6)
- Maximal VAS during 20 cutaneous electrical stimuli (healthy male volunteers [5]; [11]): 5.4 (2.0)
- Maximal VAS during 20 cutaneous electrical stimuli (healthy male volunteers [5]; [12]): 5.0 (2.3)
- Maximal VAS during 20 cutaneous electrical stimuli (healthy male volunteers [5]; [13]): 4.7 (2.1)
- Maximal VAS during 20 cutaneous electrical stimuli (healthy male volunteers [5]; [9]): 4.4 (1.6)
- Maximal VAS during 20 cutaneous electrical stimuli (healthy male volunteers [5]; [10]): 4.2 (1.6)
- AUC of VAS during 20 cutaneous electrical stimuli (healthy male volunteers [5]; [8]): 359 (144)
- AUC of VAS during 20 cutaneous electrical stimuli (healthy male volunteers [5]; [11]): 352 (131)
- AUC of VAS during 20 cutaneous electrical stimuli (healthy male volunteers [5]; [12]): 349 (185)
- AUC of VAS during 20 cutaneous electrical stimuli (healthy male volunteers [5]; [13]): 351 (141)
- AUC of VAS during 20 cutaneous electrical stimuli (healthy male volunteers [5]; [9]): 344 (148)
- AUC of VAS during 20 cutaneous electrical stimuli (healthy male volunteers [5]; [10]): 322 (137)
- Pain threshold after single intramuscular electrical stimulation (healthy male volunteers [6]; [8]): 1.8 (1.2) mA
- Pain threshold after single intramuscular electrical stimulation (healthy male volunteers [6]; baseline before medication, per drug session, listed as clonazepam): 1.84 mA
- Change in pain threshold after single intramuscular electrical stimulation from baseline to after flumazenil (healthy male volunteers [6]; main analysis, pairwise comparisons within each drug): Significant increase in pain thresholds only for clonazepam
- Change in pain detection threshold from baseline to peak value, intramuscular single electrical stimulation (healthy male volunteers [6]; peak value analysis, pairwise comparisons within each drug): significantly increase; also recorded: Significant increase in pain thresholds only for clonazepam in the peak value analysis
- Pain detection threshold, intramuscular single electrical stimulation (healthy male volunteers [6]; peak value analysis, peak value before flumazenil, mean): 11.0
- Pain threshold after single intramuscular electrical stimulation (healthy male volunteers [6]; [9]): 3.0 (2.5) mA
- Pain threshold after single intramuscular electrical stimulation (healthy male volunteers [6]; [10]): 4.1 (3.7) mA
- Pain threshold after single intramuscular electrical stimulation (healthy male volunteers [6]; single oral dose (clobazam 20 mg, clonazepam 1 mg, tolterodine 1 mg), after flumazenil 0.2 mg iv, listed as clonazepam): 4.05 mA
- AUC of VAS during cuff algometry (healthy male volunteers [7]; [8]): 3420 (689)
- Cuff algometry, overview of peak value or subgroup analysis (healthy male volunteers [7]; overview table, compared to tolterodine): Time factor significant, favouring clobazam and clonazepam compared to tolterodine
- AUC of VAS during cuff algometry (healthy male volunteers [7]; [9]): 3175 (644)
- AUC of VAS during cuff algometry (healthy male volunteers [7]; [10]): 3225 (671)
- AUC of VAS during cuff algometry compared with tolterodine at 120 min (healthy male volunteers [7]; [14]): significantly lower
- Change of AUC of VAS during cuff algometry from baseline at 120 min and after flumazenil (healthy male volunteers [7]; [14]): significantly decreased
